Data on 21 compounds can be found in patent publication US20030013660A1, “Dioxolane analogs for improved inter-cellular delivery” (Shire BioChem Inc., priority 2000, published 2003).

Where “and” joins values, the source holds several entries; their conditions need not be identical. Equal entries are not always repeated. Where two headings read alike, the source gives them in different places. A value given as a limit tells only on which side of the number the result lay.

One assay deals with H-460. Kind of assay: 3H-TdR (3H-thymidine) incorporation assay at 72 hr. It is filed as cell-based, Human. Particulars: 3H-TdR incorporation at 72 hr.
The subject of assay [1] is CEM/dCK-. Kind of assay: 3H-TdR (3H-thymidine) incorporation assay at 72 hr. It is filed as cell-based. Particulars: for IC50: deoxycytidine kinase-deficient CCRF-CEM. On the procedure:
(§1) Table of IC50 Values (μM) for Controls
(§2) Exposition of 24 hr to drug, wash, incubated for another 48 hr (total of 72 hr assay)
(§3) (3H-Thymidine Incorporation Assay)

For the next assay, the system named is MCF-7. Put plainly: 3H-TdR (3H-thymidine) incorporation assay at 72 hr. Particulars: 3H-TdR incorporation at 72 hr. Type of assay: cell-based, Human.
The test system of a further assay is SF-268. Kind of assay: 3H-TdR (3H-thymidine) incorporation assay at 72 hr. Type of assay: cell-based, Human. Conditions: 3H-TdR incorporation at 72 hr.
For a further assay, the system named is CCRF-CEM. Kind of assay: 3H-TdR (3H-thymidine) incorporation assay at 72 hr. Type of assay: cell-based. Conditions: 3H-TdR incorporation at 72 hr. On the procedure: as §1, §2, §3
Assay [2] concerns CEM/dCK-. Put plainly: 3H-TdR incorporation at 72 hr (24 hr drug exposure, wash, 48 hr). It is filed as cell-based. Conditions: read-out: IC50 in μM (3H-TdR incorporation at 72 hr) CEM/dCK- 24 h; CCRF-CEM deoxycytidine kinase-deficient; 24 h drug exposure, 72 hr assay. Here is the method: as §2, §3
The mark [3] stands for this setting: Homo sapiens, NCI-H460, read-out: IC50 H-460 24 h, 24 h drug exposure, wash, another 48 hr.
[4] abbreviates: read-out: IC50 H-460 24 h, 24 h drug exposure, wash, another 48 hr.
Where [5] appears, read: Homo sapiens, CCRF-CEM, read-out: IC50 CEM/dCK- 24 h, 24 h drug exposure, wash, another 48 hr.
Setting [6] is: Homo sapiens, MCF7, read-out: IC50 MCF-7 24 h, 24 h drug exposure, wash, another 48 hr.
The mark [7] stands for this setting: read-out: IC50 MCF-7 24 h, 24 h drug exposure, wash, another 48 hr.
The mark [8] stands for this setting: Homo sapiens, SF-268, read-out: IC50 SF-268 24 h, 24 h drug exposure, wash, another 48 hr.
The mark [9] stands for this setting: Homo sapiens, CCRF-CEM, read-out: IC50 CCRF-CEM 24 h, 24 h drug exposure, wash, another 48 hr.
Where [10] appears, read: read-out: IC50 CCRF-CEM 24 h, 24 h drug exposure, wash, another 48 hr.
Where [11] appears, read: read-out: IC50 CEM/dCK- 24 h, 24 h drug exposure, wash, another 48 hr.

Turning to `CCCCNC(=O)OC[C@H]1OC[C@@H](n2ccc(N)nc2=O)O1` [Compound 48, BUTYL-CARBAMIC ACID 4- (4-AMINO-2-OXO-2H- PYRIMIDIN-1-YL)- [1,3]DIOXOLAN-2- YLMETHYL ESTER], the IC50 in the assay with H-460 (setting [3]) was 340 nM; in the assay on H-460 (setting [4]) it was 590 nM; with CEM/dCK- [1] (setting [5]), over 100000 nM.
In the case of `CC(C)(C)OC(=O)N(CCCCCC(=O)OC[C@H]1OC[C@@H](n2ccc(N)nc2=O)O1)Cc1ccccc1` [Compound 66, 6-(Benzyl-tert-butoxycarbonyl-amino)-hexanoic acid 4-(4-amino-2-oxo-2H-pyrimidin-1-yl)-[1,3]dioxolan-2-ylmethyl ester], the IC50 is under 0.1 nM in the assay on MCF-7 (setting [6]) and 0.074 nM in the assay on MCF-7 (setting [7]).
In the case of `Cc1cccc(C)c1C(=O)OC[C@H]1OC[C@@H](n2ccc(/N=C\N(C)C)nc2=O)O1` [Compound 87, (2S,4S)-2-(2″,6″- DIMETHYLBENZOYLOXYMETHY L)-4-(4′-N,N- DIMETHYLAMINOMETHLYENE- CYTOSIN-1′-YL)-1,3- DIOXOLANE], the IC50 in the assay on CEM/dCK- [1] (setting [5]) is over 100000 nM.
`CCNc1ccn([C@@H]2CO[C@H](COCC)O2)c(=O)n1` [Compound 93, 1-(2′(S)-ETHOXYMETHYL- [1,3]DIOXOLAN-4′(S)- YL)-4-ETHYLAMINO-1H- PYRIMIDIN-2-ONE]: the IC50 with SF-268 (setting [8]) and with CEM/dCK- [1] (setting [5]) was over 100000 nM each time.
Turning to `Nc1ccn([C@@H]2CO[C@H](COCc3ccccc3)O2)c(=O)n1` [Compound 98, (2S,4S) 4-AMINO-1-(2- BENZYLOXYMETHYL- [1,3]DIOXOLAN-4-YL)-1H- PYRIMIDIN-2-ONE], the IC50 in the assay with MCF-7 (setting [6]) was 130 nM; with MCF-7 (setting [7]), 150 nM and 220 nM; with CEM/dCK- [1] (setting [5]), over 100000 nM.
With `CC(C)(C(=O)OC[C@H]1OC[C@@H](n2ccc(N)nc2=O)O1)c1ccccc1[N+](=O)[O-]` [Compound 155, (2S,4S)-2-[2″-(2″′- NITROPHENYL)-2″- METHYLPROPIONYLOXYMETHY L]-4-CYTOSIN-1′-YL-1,3- DIOXOLANE], the IC50 in the assay on CEM/dCK- [1] (setting [5]) is over 100000 nM.
Take `CCCCC(C)(C)C(=O)OC[C@H]1OC[C@@H](n2ccc(/N=C\N(C)C)nc2=O)O1` [Compound 72, (2S,4S)-2-(2″- DIMETHYLHEXANOICOXYMETH YL)-4-(4′-N,N- DIMETHYLAMINOMETHYLENE- CYTOSIN-1′-YL)-1,3- DIOXOLANE]: the IC50 in the assay with H-460 (setting [3]) came to 18 nM; in the assay with H-460 (setting [4]) it was 27 nM; with MCF-7 (setting [6]) it was 15 nM; in the assay with MCF-7 (setting [7]) it was 17 nM; with SF-268 (setting [8]), 130 nM; in the assay with SF-268 (read-out: IC50 SF-268 24 h, 24 h drug exposure, wash, another 48 hr), 75 nM. Also, the IC50 in the assay on CEM/dCK- [1] (setting [5]) turned out to be 23000 nM.
For `CC(C)(C(=O)Nc1ccn([C@@H]2CO[C@H](CO)O2)c(=O)n1)c1ccccc1[N+](=O)[O-]` [Compound 60, (2S,4S)--2- HYDROXYMETHYL-4-N-[2″- (2″′-NITROPHENYL)-2″- METHYLPROPIONYL]- CYTOSINE-1′-YL-1,3- DIOXOLANE], the IC50 in the assay on H-460 (setting [3]) came out at 2000 nM; with H-460 (setting [4]) it was 3100 nM; with MCF-7 (setting [6]) it was 860 nM; in the assay with MCF-7 (setting [7]), 950 nM; in the assay with CCRF-CEM (setting [9]), 290 nM; in the assay with CCRF-CEM (setting [10]), 310 nM. Besides, the values for the IC50 in the assay on CEM/dCK- [1] (setting [5]) and in the assay with CEM/dCK- [1] (setting [11]) were 2900 nM and 1800 nM, respectively.
In the case of `CCCCCCOC(=O)Nc1ccn([C@@H]2CO[C@H](CO)O2)c(=O)n1` [Compound 61, [1-(2-HYDROXYMETHYL- [1,3]DIOXOLAN-4-YL)-2- OXO-1,2-DIHYDRO- PYRIMIDIN-4-YL]- CARBAMIC ACID HEXYL ESTER], the IC50 in the assay on CEM/dCK- [1] (setting [5]) was over 100000 nM.
For `CCCCOC(C)OC[C@H]1OC[C@@H](n2ccc(N)nc2=O)O1` (stereo partly drawn) [Compound 97, 4-AMINO-1-[2-(1-BUTOXY- ETHOXYMETHYL)- [1,3]DIOXOLAN-4-YL]-1H- PYRIMIDIN-2-ONE], the IC50 in the assay with H-460 (setting [3]) was 22000 nM; in the assay on MCF-7 (setting [6]) it was 5000 nM; with MCF-7 (setting [7]), 4000 nM; with CCRF-CEM (setting [9]), 9200 nM; in the assay on CCRF-CEM (setting [10]), 5900 nM; in the assay with CEM/dCK- [1] (setting [5]), over 100000 nM.
`CC(C(=O)OC[C@H]1OC[C@@H](n2ccc(N)nc2=O)O1)c1ccccc1.Cl` (stereo partly drawn) [Compound 106]: in the assay on CEM/dCK- [1] (ratio of IC50 CEM/dCK- to CCRF-CEM, 24 h), the “Factor* (Resistance Factor = Ratio of dCK- on Wild-type CCRF-CEM)” value is listed as 4,600.
As to `CC(C)[C@@H]1CC[C@@H](C)C[C@H]1OC(=O)Nc1ccn([C@@H]2CO[C@H](CO)O2)c(=O)n1` [Compound 94, [1-(2-Hydroxymethyl-[1,3]dioxolan-4-yl)-2-oxo-1,2-dihydro-pyrimidin-4-yl]-carbamic acid 2-isopropyl-5-methyl-cyclohexyl ester], the IC50 in the assay on MCF-7 (setting [6]) amounted to 24000 nM; in the assay on MCF-7 (setting [7]), 13000 nM; with CEM/dCK- [1] (setting [5]), 51000 nM; in the assay with CEM/dCK- [1] (setting [11]), 85000 nM.
As for `CC(C)[C@@H]1CC[C@@H](C)C[C@H]1OC(=O)OC[C@H]1OC[C@@H](n2ccc(N)nc2=O)O1` [Compound 95, Carbonic acid 4-(4-amino-2-oxo-2#H!- pyrimidin-1-yl)-[1,3]dioxolan-2-ylmethyl ester 2-isopropyl-5-methyl-cyclohexyl ester], the IC50 in the assay on H-460 (setting [3]) is under 0.1 nM; with MCF-7 (setting [6]) it was 150 nM; with MCF-7 (setting [7]) it was 100 nM.
As to `CC(C)c1cc(C(C)C)c(C(=O)OC[C@H]2OC[C@@H](n3ccc(N)nc3=O)O2)c(C(C)C)c1` [Compound 100, 2,4,6-Triisopropyl-benzoic acid 4-(4-amino-2-oxo-2H-pyrimidin-1-yl)-[1,3]dioxolan-2-ylmethyl ester], the IC50 was 30 nM in the assay with H-460 (setting [3]) and 44 nM in the assay with H-460 (setting [4]).
As for `CC(=O)OC[C@H]1OC[C@@H](n2ccc(N)nc2=O)O1` [Compound 27], the IC50 amounted to 5.3 nM in the assay with H-460 (read-out: IC50 H-460 (72 h), 72 h exposure); 7.3 nM with MCF-7 (read-out: IC50 MCF-7 (72 h), 72 h exposure); 23 nM in the assay with SF-268 (read-out: IC50 SF-268 (72 h), 72 h exposure).
Take `CN(C)/C=N/c1ccn([C@@H]2CO[C@H](COC(=O)C(C)(C)CCC(=O)N(Cc3ccccc3)C(=O)OC(C)(C)C)O2)c(=O)n1` [Compound 166, 5-(Benzyl-tert-butoxycarbonyl-amino)-2,2-dimethyl-5-oxo-pentanoic acid 4-[4-(dimethylamino-methyleneamino)-2-oxo-2H-pyrimidin-1-yl]-[1,3]dioxolan-2-ylmethyl ester]: the IC50 with CEM/dCK- [2] was determined as 10 µM.
As for `CC(C)(C)C(=O)OC[C@H]1OC[C@@H](n2ccc(N)nc2=O)O1` [Compound 279, 2,2-DIMETHYL-PROPIONIC ACID 4-(4-AMINO-2-OXO- 2H-PYRIMIDIN-1-YL)- [1,3]DIOXOLAN-2-YL METHYL ESTER], the IC50 turned out to be 580 nM in the assay on H-460 (setting [3]); 73 nM with H-460 (Homo sapiens, NCI-H460, read-out: IC50 H-460 (72 h), 72 h exposure); 240 nM in the assay on MCF-7 (setting [6]); 21 nM in the assay with MCF-7 (Homo sapiens, MCF7, read-out: IC50 MCF-7 (72 h), 72 h exposure); 390 nM with SF-268 (setting [8]); 44 nM with SF-268 (Homo sapiens, SF-268, read-out: IC50 SF-268 (72 h), 72 h exposure).
Take `CCCCCCN(CCCCCC)C(=O)OC[C@H]1OC[C@@H](n2ccc(N)nc2=O)O1` [Compound 135, DIHEXYLCARBAMIC ACID 4(S)-(4′-AMINO-2′-OXO- 2H-PYRIMIDIN-1′-YL)- [1,3]DIOXOLAN-2(S)- YLMETHYL ESTER]: the IC50 in the assay with SF-268 (setting [8]) is 250 nM.
As for `CC(CCCCN(Cc1ccccc1)C(=O)OC(C)(C)C)C(=O)OC[C@H]1OC[C@@H](n2ccc(/N=C/N(C)C)nc2=O)O1` (stereo partly drawn) [Compound 149, 6-(Benzyl-tert-butoxycarbonyl-amino)-methyl-hexanoic acid 4-[4-(dimethylamino-methyleneamino)-2-oxo-2H-pyrimidin-1-yl]-[1,3]dioxolan-2-ylmethyl ester], the IC50 was under 0.1 nM with CCRF-CEM (setting [9]), 0.12 nM with CCRF-CEM (setting [10]), 2000 nM in the assay with CEM/dCK- [1] (setting [5]) and over 1800 nM with CEM/dCK- [1] (setting [11]).
In the case of `CC(C)c1ccc(NC(=O)OC[C@H]2OC[C@@H](n3ccc(N)nc3=O)O2)cc1` [Compound 127, (4-ISOPROPYL-PHENYL)- CARBAMIC ACID 4-(4- AMINO-2-OXO-2H- PYRIMIDIN-1-YL)- [1,3]DIOXOLAN-2- YLMETHYL ESTER], the IC50 with MCF-7 (setting [6]) was 16000 nM; in the assay with MCF-7 (setting [7]) it was 15000 nM; in the assay with CCRF-CEM (setting [9]), 15000 nM; with CCRF-CEM (setting [10]) it was 22000 nM; with CEM/dCK- [1] (setting [5]) it was over 100000 nM.
Take `CCCCC(C)C(=O)Nc1ccn([C@@H]2CO[C@H](CO)O2)c(=O)n1` (stereo in doubt) [Compound 96, 2-METHYL-HEXANOIC ACID [1-(2-HYDROXYMETHYL- [1,3]DIOXOLAN-4-YL)-2- OXO-1,2-DIHYDRO- PYRIMIDIN-4-YL]-AMIDE]: the IC50 in the assay with MCF-7 (setting [6]) was 190 nM; in the assay on MCF-7 (setting [7]) it was 210 nM; with CCRF-CEM (setting [9]) it was 1800 nM; with CCRF-CEM (setting [10]), 1900 nM; in the assay with CEM/dCK- [1] (setting [5]), over 100000 nM.
